From patent publication US20180028425A1, “COSMETIC COMPOSITIONS OF UV FILTERS” (3V Sigma S.P.A., priority 2016, published 2018)

assay: UV-A/UV-B ratio of the UV filter compounds; assay type: physicochemical
From the text: Typically, the numerical UV-A/UV-B ratio of these compounds, defined as the ratio of the intensity of the radiation absorbed between 320 nm and 400 nm (UVA fraction) to that absorbed between 290 nm and 320 nm (UVB fraction), is greater than 0.20, preferably greater than 0.30, whereas in the analogous triazine compounds with a 4-aminobenzoate or 4-aminobenzamide substituent different from the substituents described in Formula (IV), it is below about 0.14.
The UVA:UVB ratio is the ratio between the intensity of the radiation absorbed between 320 nm and 400 nm (UVA fraction) and that absorbed between 290 nm and 320 nm (UVB fraction).

Row | UVA fraction compared with known triazine analogues (diethylhexyl butamido triazone, ethylhexyl triazone) | SMILES
1 | at least twice as high | CCCCC(CC)COC(=O)c1ccc(NC(=O)c2ccc(Nc3nc(Nc4ccc(C(=O)OCC(CC)CCCC)cc4)nc(Nc4ccc(C(=O)OCC(CC)CCCC)cc4)n3)cc2)cc1 (stereo not drawn) [Compound (VII)]
2 | at least twice as high | CCCCC(CC)COC(=O)c1ccc(NC(=O)c2ccc(Nc3nc(Nc4ccc(C(=O)NC(C)(C)C)cc4)nc(Nc4ccc(C(=O)OCC(CC)CCCC)cc4)n3)cc2)cc1 (stereo not drawn) [Compound (VI)]
3 | at least twice as high | CCCCC(CC)COC(=O)c1ccc(NC(=O)c2ccc(Nc3nc(Nc4ccc(C(=O)Nc5ccc(C(=O)OCC(CC)CCCC)cc5)cc4)nc(Nc4ccc(C(=O)NC(C)(C)C)cc4)n3)cc2)cc1 (stereo not drawn) [Compound (V)]
